The source of these data is ChEMBL document CHEMBL5325417, “Dual function of protein phosphatase 5 (PPP5C): An emerging therapeutic target for drug discovery” (Eur J Med Chem, 2023).

In general, Kd refers to the free concentration of one partner at which half of the binding sites on the other are occupied at equilibrium, for simple one-to-one binding. The term EC50 denotes the concentration giving half of the maximal effect. Low readings indicate higher potency in that assay, high ones lower potency in that assay. A word on the IC50: it is the concentration needed to halve the response being measured. What is called inhibition is the share of the control response that was lost under treatment. A lower inhibition goes with little suppression.

The target in assay [1] is T1, Serine/threonine-protein phosphatase 5 (Rattus norvegicus) (UniProt P53042).
T1 sequence (whole entry): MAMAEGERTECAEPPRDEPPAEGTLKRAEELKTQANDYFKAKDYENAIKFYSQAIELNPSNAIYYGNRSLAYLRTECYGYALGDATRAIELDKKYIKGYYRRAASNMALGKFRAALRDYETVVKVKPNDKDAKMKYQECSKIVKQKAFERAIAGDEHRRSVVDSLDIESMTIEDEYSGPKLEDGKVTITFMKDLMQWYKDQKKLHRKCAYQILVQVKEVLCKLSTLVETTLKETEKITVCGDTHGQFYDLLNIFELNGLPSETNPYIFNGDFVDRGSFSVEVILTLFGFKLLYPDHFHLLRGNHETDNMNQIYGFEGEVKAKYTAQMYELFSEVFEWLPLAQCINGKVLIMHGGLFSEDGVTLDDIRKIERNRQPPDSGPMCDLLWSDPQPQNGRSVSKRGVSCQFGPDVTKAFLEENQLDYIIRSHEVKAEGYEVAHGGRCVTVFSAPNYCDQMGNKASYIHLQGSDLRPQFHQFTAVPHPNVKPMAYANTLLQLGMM
In words: Activation of rat PPP5C (428 to 430 residues) phosphatase domain expressed in Escherichia coli BL21-codonplus (DE3)-RIL cells using para-nitrophenyl phosphate as substrate assessed as fold increase at 10^5 nM. The note with it: filed as activator, dose 1.0 10^5nM.

The target of assay [2] is T1, Serine/threonine-protein phosphatase 5 (Rattus norvegicus). Kind of assay: Activation of rat PPP5C (428 to 430 residues) phosphatase domain expressed in Escherichia coli BL21-codonplus (DE3)-RIL cells using para-nitrophenyl phosphate as substrate assessed as fold change in maximum efficacy at 10^5 nM. The note with it: filed as activator, dose 1.0 10^5nM.
Assay [3] has as its target T2, Serine/threonine-protein phosphatase 5 (Rattus norvegicus, UniProt P53042).
T2 sequence (P53042 whole entry): T1 sequence (whole entry)
In words: Binding affinity to rat PPP5C (428 to 430 residues) phosphatase domain expressed in Escherichia coli BL21-codonplus (DE3)-RIL cells using para-nitrophenyl phosphate as substrate assessed as dissociation constant at 10^5 nM.

The target in assay [4] is T3, Serine/threonine-protein phosphatase 5 (Homo sapiens, UniProt P53041).
T3 sequence (P53041 whole entry): T1 sequence (whole entry) with E22D, T24A, N128H, S140N, R158K, T189S, D193E, C221S, V397I, Q419N
In words: Activation of PPP5C (unknown origin) TPR domain.

For assay [5], the target named is T3, Serine/threonine-protein phosphatase 5. In words: Inhibition of PPP5C (unknown origin) phosphatase domain.
Assay [6] in a line: Inhibition of bovine blood PP2A phosphatase domain expressed in Escherichia coli using DiFMUP as substrate. The format is tissue-based, Bos taurus.
Assay [7] addresses T3, Serine/threonine-protein phosphatase 5. Kind of assay: Inhibition of MBP fused recombinant human PPP5C phosphatase domain expressed in Escherichia coli using DiFMUP as substrate.
Assay [8] can be described thus: Inhibition of PP1 (unknown origin) phosphatase domain. More on the design: species or system Homo sapiens.
Assay [9] deals with T4, Serine/threonine-protein phosphatase 5 (Homo sapiens) (UniProt P53041).
T4 sequence (whole entry): T1 sequence (whole entry) with E22D, T24A, N128H, S140N, R158K, T189S, D193E, C221S, V397I, Q419N
In words: Activation of PPP5C (unknown origin) TPR domain assessed as fold change. The note with it: filed as activator.

Assay [10] has as its target T4, Serine/threonine-protein phosphatase 5 (Homo sapiens). In words: Activation of Histidine-tagged human PPP5C TPR domain assessed as fold change at 10^5 nM. The note with it: filed as activator, dose 1.0 10^5nM.
The target is the same in assay [11]. Kind of assay: Inhibition of N-terminally 6His-tagged full-length human PPP5C (1 to 499 residues) TPR domain expressed in Escherichia coli Rosetta gami2 (de3) pLysS cells using pNPP as substrate at 10^6 nM preincubated for 10 mins followed by substrate addition and measured for 60 mins relative to control. The note with it: dose 1.0 10^6nM, time 70.0 min.
The nature of assay [12]: Inhibition of PP6 (unknown origin) phosphatase domain. Also noted: species or system Homo sapiens.
A short description of assay [13]: Inhibition of PP3 (unknown origin) phosphatase domain. More on the design: species or system Homo sapiens.
Assay [14] can be described thus: Inhibition of PP4 (unknown origin) phosphatase domain using phosphohistone as substrate. More on the design: species or system Homo sapiens.
Assay [15] is described as follows: Inhibition of PP2A (unknown origin) phosphatase domain. More on the design: species or system Homo sapiens.
Assay [16] concerns the target T5, Serine/threonine-protein phosphatase with EF-hands 1 (Homo sapiens, UniProt O14829).
T5 sequence (O14829 whole entry): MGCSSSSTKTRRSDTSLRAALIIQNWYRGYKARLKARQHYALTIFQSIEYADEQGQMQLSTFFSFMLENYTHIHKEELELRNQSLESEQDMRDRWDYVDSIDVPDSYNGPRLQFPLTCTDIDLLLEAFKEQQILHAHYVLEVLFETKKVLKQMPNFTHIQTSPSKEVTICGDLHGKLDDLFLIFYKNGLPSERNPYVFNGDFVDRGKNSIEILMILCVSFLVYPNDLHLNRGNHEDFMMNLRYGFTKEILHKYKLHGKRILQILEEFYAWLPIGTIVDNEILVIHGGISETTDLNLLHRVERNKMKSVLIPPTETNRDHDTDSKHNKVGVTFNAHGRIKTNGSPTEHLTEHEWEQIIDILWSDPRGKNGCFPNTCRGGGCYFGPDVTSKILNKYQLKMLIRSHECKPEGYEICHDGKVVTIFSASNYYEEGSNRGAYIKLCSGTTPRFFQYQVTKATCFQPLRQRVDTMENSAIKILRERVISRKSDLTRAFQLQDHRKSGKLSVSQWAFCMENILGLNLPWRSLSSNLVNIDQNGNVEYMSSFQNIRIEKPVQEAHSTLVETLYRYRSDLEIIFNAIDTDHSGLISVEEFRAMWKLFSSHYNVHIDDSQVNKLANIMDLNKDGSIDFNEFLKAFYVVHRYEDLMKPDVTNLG
In words: Inhibition of PP7 (unknown origin) phosphatase domain.

Assay [17] addresses T6, Serine/threonine-protein phosphatase 4 catalytic subunit (Homo sapiens, UniProt P60510).
T6 sequence (P60510 whole entry): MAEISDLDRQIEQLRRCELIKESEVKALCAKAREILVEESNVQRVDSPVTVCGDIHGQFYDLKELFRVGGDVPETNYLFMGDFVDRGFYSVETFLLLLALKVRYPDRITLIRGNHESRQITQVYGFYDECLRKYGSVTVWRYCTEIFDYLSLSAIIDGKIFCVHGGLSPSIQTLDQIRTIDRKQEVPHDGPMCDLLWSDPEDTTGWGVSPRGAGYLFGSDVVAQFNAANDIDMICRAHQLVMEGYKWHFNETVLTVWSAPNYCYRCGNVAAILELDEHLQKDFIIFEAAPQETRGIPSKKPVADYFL
In words: Inhibition of PP4 (unknown origin) phosphatase domain.

Assay [18] is described as follows: Inhibition of PP2A (unknown origin) phosphatase domain using phosphohistone as substrate. More on the design: species or system Homo sapiens.

Molecules are shown by their SMILES. Where a chain is given by its changes, count along the chain named. Starred links: 1 amine or outer side, 2 acyl side, 3 side chain; linkers in the order of their positions; H or OH if unused. Positions of bridges follow the written chain, without caps; N, C: chain ends. Non-standard residues stand in square brackets, D forms with d. Residues, ends and D or L forms follow the SMILES beside them. Adda = CO[C@@H](Cc1ccccc1)[C@@H](C)/C=C(C)/C=C/[C@H](N[*:1])[C@H](C)C(=O)[*:2]; dAsp(3S-Me) = C[C@H](C(=O)[*:3])[C@@H](N[*:1])C(=O)[*:2]; d(γGlu) = O=C(O)[C@@H](CCC(=O)[*:2])N[*:1]; NMeDha = C=C(NC)C(=O)O Bounds are passed on as bounds.

`COc1ccc(-c2nc(Cc3ccc(Cl)cc3)no2)cc1OC`: the fold change (FC) in assay [1] worked out at 3.2; in assay [2], 3.9. The Kd in assay [3] was 7.8 µM.
In turn, `O=C(O)CCCCCCCCCCCC[C@H]1C=CCC1` gave an EC50 in assay [4] of 134 µM.
In assay [5], `CCCCO[C@H]1C[C@@H]2O[C@H]1[C@@H](C(=O)O)[C@H]2C(=O)O` gave an IC50 of 700 nM.
For the compound `CN1CCN(C(=O)[C@H]2[C@@H](C(=O)O)[C@@H]3CC[C@H]2O3)CC1`, the half-maximal inhibitory concentration (IC50) was determined as 400 nM in [6], 1800 nM in [7] and 2.4 nM in assay [8].
The compound `C[C@H]1C[C@@H]2O[C@H]1[C@@H](C(=O)O)[C@H]2C(=O)O` gave an IC50 in assay [5] of 1000 nM.
On to `CCCCC/C=C\C/C=C\C/C=C\C/C=C\CCCC(=O)O`, for which the fold change (FC) in assay [9] is 1.5.
With `Cc1ccc(C(=O)Nc2ccc(S(=O)(=O)O)c3cc(S(=O)(=O)O)cc(S(=O)(=O)O)c23)cc1NC(=O)c1cccc(NC(=O)Nc2cccc(C(=O)Nc3cc(C(=O)Nc4ccc(S(=O)(=O)O)c5cc(S(=O)(=O)O)cc(S(=O)(=O)O)c45)ccc3C)c2)c1`, in assay [10], the fold change (FC) amounted to 4.
`Nc1ccc(-c2nc3ccc(-c4nc5ccc(N)cc5[nH]4)cc3[nH]2)cc1` yielded an inhibition in [11] above 40%.
On to `C[C@@]12C(=O)OC(=O)[C@]1(C)[C@H]1CC[C@@H]2O1` [CANTHARIDIN], for which the IC50 in [12] is 8 µM; in [8], 1700 nM; in assay [13] it was above 500 µM; in assay [14] it was 50 nM; in assay [15], 160 nM.
In assay [4], `CC(C)(COP(=O)(O)OP(=O)(O)OC[C@H]1O[C@@H](n2cnc3c(N)ncnc32)[C@H](O)[C@@H]1OP(=O)(O)O)[C@@H](O)C(=O)NCCC(=O)NCCS` [COENZYME_A] displayed a concentration for a half-maximal effect (EC50) of 1 µM. That is a single-digit micromolar value.
Regarding `O=C1OC(=O)C2C3CCC(O3)C12` (stereo not given) [DEMETHYL-CANTHARIDIN], the midpoint of inhibition in [5], the IC50, lay at 1000 nM.
As for `C[C@@](O)(/C=C/[C@H]1CC=CC(=O)O1)[C@@H](C[C@@H](O)\C=C/C=C\C=C\CO)OP(=O)(O)O` [FOSTRIECIN], the IC50 is 0.01 µM in [12]; above 100000 nM in assay [8]; above 1000 nM in assay [5]; above 100 µM in assay [13]; 1.5 nM in [15]; above 1000 nM in assay [16]. Further, in assay [17], the 50% inhibitory concentration (IC50) was found to be 3 nM.
On to `C=C1C(=O)N[C@H](C)C(=O)N[C@@H](CC(C)C)C(=O)N[C@@H](C(=O)O)[C@H](C)C(=O)N[C@@H](CCCNC(=N)N)C(=O)N[C@@H](/C=C/C(C)=C/[C@H](C)[C@H](Cc2ccccc2)OC)[C@H](C)C(=O)N[C@@H](C(=O)O)CCC(=O)N1C` [MICROCYSTIN-LR] (R[Adda][d(γGlu)][NMeDha][dA]L[dAsp(3S-Me)]-OH; lactam N-7), for which the half-inhibitory concentration (IC50) in assay [18] was 0.04 nM; in assay [8], 1.7 nM; in assay [13], 0.2 µM; in assay [14] it was 0.15 nM.
